In ChEMBL document CHEMBL5352490, “SAR investigation and optimization of benzimidazole-based derivatives as antimicrobial agents against Gram-negative bacteria” (Eur J Med Chem, 2023):
Values after ≈ are worked out from the molar mass of the structure shown.

Tests used:
Escherichia coli [1] = experiment: Antibacterial activity against Escherichia coli tolC mutant incubated for 24 hrs by broth microdilution method; type: functional
Escherichia coli [2] = experiment: Antibacterial activity against wild type Escherichia coli BW25113 incubated for 24 hrs in absence of colistin by broth microdilution method; type: functional
Escherichia coli [3] = experiment: Synergistic antibacterial activity against wild type Escherichia coli BW25113 incubated for 24 hrs in presence of colistin by broth microdilution method; type: functional
Klebsiella pneumoniae [4] = experiment: Antibacterial activity against Klebsiella pneumoniae ATCC 1706 incubated for 24 hrs in absence of colistin by broth microdilution method; type: functional
Klebsiella pneumoniae [5] = experiment: Synergistic antibacterial activity against Klebsiella pneumoniae ATCC 1706 incubated for 24 hrs in presence of colistin by broth microdilution method; type: functional
Acinetobacter baumannii [6] = experiment: Antibacterial activity against Acinetobacter baumannii ATCC 19606 incubated for 24 hrs in absence of colistin by broth microdilution method; type: functional
Acinetobacter baumannii [7] = experiment: Synergistic antibacterial activity against Acinetobacter baumannii ATCC 19606 incubated for 24 hrs in presence of colistin by broth microdilution method; type: functional
Pseudomonas aeruginosa [8] = experiment: Antibacterial activity against Pseudomonas aeruginosa ATCC 9027 incubated for 24 hrs in absence of colistin by broth microdilution method; type: functional
Pseudomonas aeruginosa [9] = experiment: Synergistic antibacterial activity against Pseudomonas aeruginosa ATCC 9027 incubated for 24 hrs in presence of colistin by broth microdilution method; type: functional
[10] = Cytotoxicity against African green monkey Vero cells assessed as reduction in cell viability incubated for 24 hrs by MTS assay; type: toxicity, cell-based; conditions: chlorocebus sabaeus
Escherichia coli [11] = experiment: Bacteriostatic effect in Escherichia coli JW55031 assessed as log reduction in bacterial burden at 10 times MIC measured after 24 hrs by time kill assay; type: functional
Escherichia coli [12] = experiment: Bacteriostatic effect in Escherichia coli JW55031 assessed as log reduction in bacterial count at 5 times MIC measured at 24 hrs by time kill assay; type: functional
Escherichia coli [13] = experiment: Bacteriostatic effect in Escherichia coli JW55031 assessed as log reduction in bacterial count at 10 times MIC measured at 24 hrs by time kill assay; type: functional

Compound	MIC (Escherichia coli [1]) [µg/mL]	further results
Cc1ccc(Cn2c(-c3cccc(NS(C)(=O)=O)c3)nc3ccc(C(=O)O)cc32)cc1	> 64	
COc1ccc(S(=O)(=O)Nc2cccc(-c3nc4ccccc4n3Cc3ccc(C)cc3)c2)cc1	4 (≈ 8.27 µM)	
Cc1ccc(Cn2c(-c3cccc(NS(=O)(=O)c4ccc([N+](=O)[O-])cc4)c3)nc3ccccc32)cc1	> 64	
CCCCCCCCCC(=O)N[C@@H](Cc1c[nH]c2ccccc12)C(=O)N[C@H](CC(N)=O)C(=O)N[C@@H](CC(=O)O)C(=O)N[C@@H]1C(=O)NCC(=O)N[C@@H](CCCN)C(=O)N[C@@H](CC(=O)O)C(=O)N[C@H](C)C(=O)N[C@@H](CC(=O)O)C(=O)NCC(=O)N[C@H](CO)C(=O)N[C@@H]([C@H](C)CC(=O)O)C(=O)N[C@@H](CC(=O)c2ccccc2N)C(=O)O[C@@H]1C		MIC (Escherichia coli [2]): > 128 µg/mL; MIC (Escherichia coli [3]): > 128 µg/mL; MIC (Klebsiella pneumoniae [4]): > 128 µg/mL; MIC (Klebsiella pneumoniae [5]): > 128 µg/mL; MIC (Acinetobacter baumannii [6]): > 128 µg/mL; MIC (Acinetobacter baumannii [7]): > 128 µg/mL; MIC (Pseudomonas aeruginosa [8]): > 128 µg/mL; MIC (Pseudomonas aeruginosa [9]): > 128 µg/mL
Cc1ccc(Cn2c(-c3cccc(NS(C)(=O)=O)c3)nc3cc(Br)ccc32)cc1	> 64	
CC(=O)NC[C@H]1CN(c2ccc(N3CCOCC3)c(F)c2)C(=O)O1 [LINEZOLID]	8 (≈ 23.7 µM)	
CCOC(=O)Nc1ccc2nc(-c3cccc(NS(C)(=O)=O)c3)n(Cc3ccc(C)cc3)c2c1	> 64	
CC(=O)Nc1ccc(S(=O)(=O)Nc2cccc(-c3nc4ccccc4n3Cc3ccc(C)cc3)c2)cc1	> 64	
GENTAMICIN	0.25	
Cc1ccc(Cn2c(-c3cccc(NS(C)(=O)=O)c3)nc3cccc(C(=O)O)c32)cc1	> 64	
Cc1ccc(Cn2c(-c3cccc(NS(C)(=O)=O)c3)nc3cc(C)ccc32)cc1	> 64	
Cc1ccc(Cn2c(-c3cccc(C(=N)N)c3)nc3ccccc32)cc1	32 (≈ 94 µM)	
Cc1ccc(Cn2c(-c3cccc(NS(C)(=O)=O)c3)nc3ccc(C)cc32)cc1	> 64	
CC[C@H]1OC(=O)[C@H](C)[C@@H](O[C@H]2C[C@@](C)(OC)[C@@H](O)[C@H](C)O2)[C@H](C)[C@@H](O[C@@H]2O[C@H](C)C[C@H](N(C)C)[C@H]2O)[C@](C)(O)C[C@@H](C)C(=O)[C@H](C)[C@@H](O)[C@]1(C)O [ERYTHROMYCIN]		MIC (Escherichia coli [2]): 32 µg/mL (≈ 43.6 µM); MIC (Escherichia coli [3]): 2 µg/mL; MIC (Klebsiella pneumoniae [4]): 64 µg/mL (≈ 87.2 µM); MIC (Klebsiella pneumoniae [5]): 4 µg/mL; MIC (Acinetobacter baumannii [6]): 8 µg/mL (≈ 10.9 µM); MIC (Acinetobacter baumannii [7]): 0.25 µg/mL; MIC (Pseudomonas aeruginosa [8]): > 64 µg/mL; MIC (Pseudomonas aeruginosa [9]): 8 µg/mL
Cc1ccc(Cn2c(-c3cccc(NS(=O)(=O)c4ccc5ccccc5c4)c3)nc3ccccc32)cc1	> 64	
Cc1ccc(Cn2c(-c3cccc(NS(=O)(=O)c4cccc(N)c4)c3)nc3ccccc32)cc1	2 (≈ 4.27 µM)	
Cc1ccc(Cn2c(-c3cccc(NS(=O)(=O)C4CC4)c3)nc3ccccc32)cc1	1 (≈ 2.4 µM)	
Cc1ccc(Cn2c(-c3cccc(NS(=O)(=O)c4ccc(C)cc4)c3)nc3ccccc32)cc1	2 (≈ 4.28 µM)	
Cc1ccc(Cn2c(-c3cccc(NS(C)(=O)=O)c3)nc3cc(C#N)ccc32)cc1	> 64	
CCOC(=O)c1cccc2nc(-c3cccc(NS(C)(=O)=O)c3)n(Cc3ccc(C)cc3)c12	> 64	
CCOC(=O)Nc1ccc2c(c1)nc(-c1cccc(NS(C)(=O)=O)c1)n2Cc1ccc(C)cc1	> 64	
Cc1ccc(Cn2c(-c3cccc(NS(=O)(=O)c4ccc(Cl)cc4)c3)nc3ccccc32)cc1	2 (≈ 4.1 µM)	
Cc1ccc(Cn2c(-c3cccc(NS(C)(=O)=O)c3)nc3cc(C(F)(F)F)ccc32)cc1	> 64	
Cc1ccc(Cn2c(-c3cccc(NS(C)(=O)=O)c3)nc3ccc(Br)cc32)cc1	> 64	
CCOC(=O)c1ccc2nc(-c3cccc(NS(C)(=O)=O)c3)n(Cc3ccc(C)cc3)c2c1	> 64	
Cc1ccc(Cn2c(-c3cccc(NS(C)(=O)=O)c3)nc3ccc(C(=N)NO)cc32)cc1	> 64	
CS(=O)(=O)Nc1cccc(-c2nc3ccccc3n2Cc2ccc(-c3nnn[nH]3)cc2)c1	> 64	

Compound	MIC (Escherichia coli [1]) [µg/mL]	further results
Cc1ccc(Cn2c(-c3cccc(NS(C)(=O)=O)c3)nc3cc(N)ccc32)cc1	> 64	
CCOC(=O)c1ccc2c(c1)nc(-c1cccc(NS(C)(=O)=O)c1)n2Cc1ccc(C)cc1	> 64	
Cc1ccc(Cn2c(-c3cccc(NS(C)(=O)=O)c3)nc3cc(C(=O)O)ccc32)cc1	> 64	
Cc1ccc(Cn2c(-c3cccc(NS(C)(=O)=O)c3)nc3ccccc32)cc1	2 (≈ 5.11 µM)	
Cc1ccc(Cn2c(-c3cccc(NS(=O)(=O)c4cccc(Br)c4)c3)nc3ccccc32)cc1	0.5 (≈ 0.939 µM)	
Cc1ccc(Cn2c(-c3cccc(NS(=O)(=O)c4ccc(F)c(F)c4)c3)nc3ccccc32)cc1	1 (≈ 2.04 µM)	
Cc1ccc(Cn2c(-c3cccc(NS(C)(=O)=O)c3)nc3ccc(C#N)cc32)cc1	> 64	
Cc1ccc(Cn2c(-c3cccc(NS(=O)(=O)c4ccccc4)c3)nc3ccccc32)cc1	1 (≈ 2.2 µM)	
Cc1ccc(Cn2c(-c3cccc(-c4nnn[nH]4)c3)nc3ccccc32)cc1	8 (≈ 21.8 µM)	
Cc1ccc(Cn2c(-c3cccc(NS(=O)(=O)c4ccc(C(F)(F)F)cc4)c3)nc3ccccc32)cc1	> 64	
Cc1ccc(Cn2c(-c3cccc(NS(=O)(=O)c4ccc(N)cc4)c3)nc3ccccc32)cc1	> 64	
Cc1ccc(Cn2c(-c3cccc(NS(=O)(=O)c4ccc(Br)cc4)c3)nc3ccccc32)cc1	> 64	
Cc1ccc(Cn2c(-c3cccc(NS(=O)(=O)c4cccc([N+](=O)[O-])c4)c3)nc3ccccc32)cc1	2 (≈ 4.01 µM)	
CS(=O)(=O)Nc1cccc(-c2nc3ccccc3n2Cc2ccc(-c3ncon3)cc2)c1	> 64	
Cc1ccc(Cn2c(-c3cccc(NS(=O)(=O)c4ccc(-c5ccccc5)cc4)c3)nc3ccccc32)cc1	> 64	
Cc1ccc(Cn2c(-c3cccc(NS(C)(=O)=O)c3)nc3ccc(N)cc32)cc1	> 64	
Cc1ccc(Cn2c(-c3cccc(C(=N)NO)c3)nc3ccccc32)cc1	> 64	
Cc1ccc(Cn2c(-c3cccc(NS(=O)(=O)c4ccc(F)c(Cl)c4)c3)nc3ccccc32)cc1	2 (≈ 3.95 µM)	
Cc1ccc(Cn2c(-c3cccc(NS(=O)(=O)c4ccc(C(C)C)cc4)c3)nc3ccccc32)cc1	> 64	
CS(=O)(=O)Nc1cccc(-c2nc3ccccc3n2Cc2ccc(C(=N)NO)cc2)c1	> 64	
Cc1ccc(Cn2c(-c3cccc(NS(=O)(=O)c4ccccc4[N+](=O)[O-])c3)nc3ccccc32)cc1	1 (≈ 2.01 µM)	
Cc1ccc(Cn2c(-c3cccc(NS(=O)(=O)c4ccc(OC(F)(F)F)cc4)c3)nc3ccccc32)cc1	> 64	
Cc1ccc(Cn2c(-c3cccc(NS(C)(=O)=O)c3)nc3cc(C(=N)NO)ccc32)cc1	> 64	
Cc1ccc(Cn2c(-c3cccc(NS(=O)(=O)c4cccc(Cl)c4)c3)nc3ccccc32)cc1	0.125 (≈ 0.256 µM)	CC50 at 24 h [10]: > 128 µg/mL; log(activity) (Escherichia coli [11]): 0.4; log(activity) (Escherichia coli [12]): 2.54; log(activity) (Escherichia coli [13]): 2.9; MIC (Escherichia coli [2]): > 64 µg/mL; MIC (Escherichia coli [3]): 16 µg/mL; MIC (Klebsiella pneumoniae [4]): > 64 µg/mL; MIC (Klebsiella pneumoniae [5]): 8 µg/mL; MIC (Acinetobacter baumannii [6]): > 64 µg/mL; MIC (Acinetobacter baumannii [7]): 4 µg/mL; MIC (Pseudomonas aeruginosa [8]): > 64 µg/mL; MIC (Pseudomonas aeruginosa [9]): 16 µg/mL
Cc1ccc(Cn2c(-c3cccc(-c4ncon4)c3)nc3ccccc32)cc1	> 64	
COc1ccc(S(=O)(=O)Nc2cccc(-c3nc4ccccc4n3Cc3ccc(C)cc3)c2)cc1OC	4 (≈ 7.79 µM)	
Cc1ccc(Cn2c(-c3cccc(NS(=O)(=O)c4ccc(C(C)(C)C)cc4)c3)nc3ccccc32)cc1	> 64	
